The values below come from ChEMBL document CHEMBL3758163, “Extended structure-activity study of thienopyrimidine-based EGFR inhibitors with evaluation of drug-like properties” (Eur J Med Chem, 2016).

Assay [1] has as its target Macrophage colony-stimulating factor 1 receptor (Homo sapiens) (UniProt P07333). Briefly: Inhibition of CSF1R (unknown origin) at 500 nM.
The target of assay [2] is Platelet-derived growth factor receptor alpha (Homo sapiens) (UniProt P16234). The experiment in a line: Inhibition of PDGFRA (unknown origin) at 500 nM.
Assay [3] deals with Proto-oncogene tyrosine-protein kinase receptor Ret (Homo sapiens) (UniProt P07949). The experiment in a line: Inhibition of RET (unknown origin) at 500 nM.
Chain of Proto-oncogene tyrosine-protein kinase receptor Ret (Homo sapiens) (P07949 whole entry): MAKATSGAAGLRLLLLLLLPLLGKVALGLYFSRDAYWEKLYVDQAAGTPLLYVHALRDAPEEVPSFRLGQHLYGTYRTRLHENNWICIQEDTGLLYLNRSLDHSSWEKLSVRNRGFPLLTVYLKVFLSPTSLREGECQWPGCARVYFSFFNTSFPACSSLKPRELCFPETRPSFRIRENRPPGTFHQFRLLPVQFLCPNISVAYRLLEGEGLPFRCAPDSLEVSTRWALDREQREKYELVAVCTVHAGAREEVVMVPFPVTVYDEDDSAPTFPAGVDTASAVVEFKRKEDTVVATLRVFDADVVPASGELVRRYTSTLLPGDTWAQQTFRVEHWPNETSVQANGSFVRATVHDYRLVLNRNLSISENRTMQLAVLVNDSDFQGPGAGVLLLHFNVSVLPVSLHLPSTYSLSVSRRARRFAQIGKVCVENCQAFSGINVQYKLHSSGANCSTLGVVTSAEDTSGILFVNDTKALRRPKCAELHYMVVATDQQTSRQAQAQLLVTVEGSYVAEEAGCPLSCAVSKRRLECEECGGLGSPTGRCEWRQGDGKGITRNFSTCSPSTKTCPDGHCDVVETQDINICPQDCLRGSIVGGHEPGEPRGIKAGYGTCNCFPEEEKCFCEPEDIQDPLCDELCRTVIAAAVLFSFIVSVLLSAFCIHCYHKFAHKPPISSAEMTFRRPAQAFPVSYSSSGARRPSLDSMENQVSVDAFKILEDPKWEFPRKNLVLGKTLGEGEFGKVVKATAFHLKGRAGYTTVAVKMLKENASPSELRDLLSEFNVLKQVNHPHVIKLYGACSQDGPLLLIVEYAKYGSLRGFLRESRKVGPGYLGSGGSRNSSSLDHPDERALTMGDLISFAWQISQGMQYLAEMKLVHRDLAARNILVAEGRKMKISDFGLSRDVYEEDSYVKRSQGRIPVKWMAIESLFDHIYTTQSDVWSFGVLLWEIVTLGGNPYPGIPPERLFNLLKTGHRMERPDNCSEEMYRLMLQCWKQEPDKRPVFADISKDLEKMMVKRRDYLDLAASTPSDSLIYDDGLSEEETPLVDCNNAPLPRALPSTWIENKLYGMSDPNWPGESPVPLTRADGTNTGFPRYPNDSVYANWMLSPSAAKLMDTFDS
Assay [4] addresses cAMP-dependent protein kinase catalytic subunit alpha (Homo sapiens) (UniProt P17612). Briefly: Inhibition of PRKACA (unknown origin) at 500 nM.
Assay [5] has as its target Glycogen synthase kinase-3 beta (Homo sapiens) (UniProt P49841). Briefly: Inhibition of GSK3B (unknown origin) at 500 nM.
The target in assay [6] is T1, Serine/threonine-protein kinase Nek1 (Homo sapiens) (UniProt Q96PY6).
T1 sequence (whole entry): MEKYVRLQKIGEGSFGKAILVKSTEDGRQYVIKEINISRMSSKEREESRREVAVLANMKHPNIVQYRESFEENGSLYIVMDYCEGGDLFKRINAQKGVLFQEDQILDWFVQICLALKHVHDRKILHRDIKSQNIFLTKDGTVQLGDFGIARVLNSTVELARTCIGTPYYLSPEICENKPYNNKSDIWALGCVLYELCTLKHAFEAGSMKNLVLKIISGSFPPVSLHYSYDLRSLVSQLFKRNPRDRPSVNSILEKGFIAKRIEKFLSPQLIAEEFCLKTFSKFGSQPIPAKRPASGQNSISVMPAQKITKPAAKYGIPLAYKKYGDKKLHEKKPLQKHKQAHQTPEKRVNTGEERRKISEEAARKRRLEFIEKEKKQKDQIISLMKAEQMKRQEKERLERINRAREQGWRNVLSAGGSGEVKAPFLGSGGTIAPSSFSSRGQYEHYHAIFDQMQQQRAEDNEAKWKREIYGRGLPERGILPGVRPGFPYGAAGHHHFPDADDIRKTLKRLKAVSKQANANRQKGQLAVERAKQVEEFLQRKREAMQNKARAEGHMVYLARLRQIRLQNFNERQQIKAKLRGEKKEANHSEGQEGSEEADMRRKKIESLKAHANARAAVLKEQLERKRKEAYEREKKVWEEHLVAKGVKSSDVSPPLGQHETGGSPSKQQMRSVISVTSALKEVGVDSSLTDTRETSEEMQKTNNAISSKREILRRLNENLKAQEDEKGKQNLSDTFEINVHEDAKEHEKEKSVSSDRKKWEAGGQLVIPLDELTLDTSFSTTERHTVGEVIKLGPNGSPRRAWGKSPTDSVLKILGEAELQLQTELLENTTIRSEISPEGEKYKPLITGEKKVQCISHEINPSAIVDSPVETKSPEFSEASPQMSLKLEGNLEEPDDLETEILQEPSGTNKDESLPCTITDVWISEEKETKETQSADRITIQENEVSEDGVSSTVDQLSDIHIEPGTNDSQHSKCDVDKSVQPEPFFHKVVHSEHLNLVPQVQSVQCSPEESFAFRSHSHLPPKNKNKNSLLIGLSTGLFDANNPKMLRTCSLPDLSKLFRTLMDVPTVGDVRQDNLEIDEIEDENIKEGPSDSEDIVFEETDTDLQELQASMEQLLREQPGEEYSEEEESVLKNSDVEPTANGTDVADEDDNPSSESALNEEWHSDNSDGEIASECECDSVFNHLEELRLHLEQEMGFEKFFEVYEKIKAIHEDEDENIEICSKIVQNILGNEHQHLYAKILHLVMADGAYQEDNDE
Briefly: Inhibition of NEK1 (unknown origin) at 500 nM.

Assay [7] deals with Tyrosine-protein kinase Yes (Homo sapiens) (UniProt P07947). Briefly: Inhibition of YES1 (unknown origin) at 500 nM.
Chain of Tyrosine-protein kinase Yes (Homo sapiens) (P07947 2-543 limits assumed): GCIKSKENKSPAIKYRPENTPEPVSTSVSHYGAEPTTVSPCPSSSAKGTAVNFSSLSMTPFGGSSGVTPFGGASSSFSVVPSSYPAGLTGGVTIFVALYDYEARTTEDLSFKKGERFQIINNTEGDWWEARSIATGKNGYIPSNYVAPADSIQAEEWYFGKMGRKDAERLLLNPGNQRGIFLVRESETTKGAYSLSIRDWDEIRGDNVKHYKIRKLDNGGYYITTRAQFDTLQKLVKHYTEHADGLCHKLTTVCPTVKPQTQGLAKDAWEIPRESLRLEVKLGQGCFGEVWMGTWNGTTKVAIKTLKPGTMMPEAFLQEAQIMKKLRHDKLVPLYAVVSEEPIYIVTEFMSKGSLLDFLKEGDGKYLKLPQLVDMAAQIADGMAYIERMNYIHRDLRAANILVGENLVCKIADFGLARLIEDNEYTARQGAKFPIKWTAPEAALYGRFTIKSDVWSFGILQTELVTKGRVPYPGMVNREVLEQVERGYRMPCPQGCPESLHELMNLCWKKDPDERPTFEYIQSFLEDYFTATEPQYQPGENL
The target in assay [8] is Mitogen-activated protein kinase 1 (Homo sapiens) (UniProt P28482). The experiment in a line: Inhibition of MAPK1 (unknown origin) at 500 nM.
Assay [9] has as its target T2, Aurora kinase A (Homo sapiens) (UniProt O14965).
T2 sequence (whole entry): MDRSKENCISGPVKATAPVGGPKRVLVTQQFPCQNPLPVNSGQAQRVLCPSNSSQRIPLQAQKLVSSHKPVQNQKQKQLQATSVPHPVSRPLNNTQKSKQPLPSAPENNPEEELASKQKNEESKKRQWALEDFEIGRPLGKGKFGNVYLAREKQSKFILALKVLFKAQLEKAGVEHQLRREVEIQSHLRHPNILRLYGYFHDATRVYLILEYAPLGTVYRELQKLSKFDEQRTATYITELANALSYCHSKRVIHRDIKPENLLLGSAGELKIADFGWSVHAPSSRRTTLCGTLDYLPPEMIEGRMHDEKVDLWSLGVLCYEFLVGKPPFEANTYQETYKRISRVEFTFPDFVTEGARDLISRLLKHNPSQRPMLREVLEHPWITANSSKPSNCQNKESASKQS
Briefly: Inhibition of AURKA (unknown origin) at 500 nM.

Assay [10] has as its target Serine/threonine-protein kinase B-raf (Homo sapiens) (UniProt P15056). Briefly: Inhibition of BRAF (unknown origin) at 500 nM.
For assay [11], the target named is Protein kinase C beta type (Homo sapiens) (UniProt P05771). The experiment in a line: Inhibition of PRKCB1 (unknown origin) at 500 nM.
Chain of Protein kinase C beta type (Homo sapiens) (P05771 2-671 limits assumed): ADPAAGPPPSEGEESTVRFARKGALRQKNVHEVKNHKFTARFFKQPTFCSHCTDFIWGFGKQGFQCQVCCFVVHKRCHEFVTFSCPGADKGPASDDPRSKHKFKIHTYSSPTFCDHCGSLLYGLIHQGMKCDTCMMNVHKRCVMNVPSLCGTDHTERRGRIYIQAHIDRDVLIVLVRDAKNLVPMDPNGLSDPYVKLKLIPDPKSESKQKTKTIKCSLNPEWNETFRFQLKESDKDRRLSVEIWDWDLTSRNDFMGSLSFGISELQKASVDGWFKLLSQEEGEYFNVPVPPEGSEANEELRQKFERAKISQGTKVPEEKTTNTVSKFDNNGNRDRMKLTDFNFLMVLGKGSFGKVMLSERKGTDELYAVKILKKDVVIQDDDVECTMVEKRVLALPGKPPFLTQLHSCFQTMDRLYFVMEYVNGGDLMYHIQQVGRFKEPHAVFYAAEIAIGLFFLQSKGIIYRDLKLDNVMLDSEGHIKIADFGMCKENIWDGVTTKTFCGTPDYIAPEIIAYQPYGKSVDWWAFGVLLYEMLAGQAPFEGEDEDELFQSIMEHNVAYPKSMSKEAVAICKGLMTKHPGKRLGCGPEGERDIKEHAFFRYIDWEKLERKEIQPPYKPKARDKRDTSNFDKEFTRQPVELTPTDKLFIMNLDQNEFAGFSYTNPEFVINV
The target in assay [12] is Vascular endothelial growth factor receptor 2 (Homo sapiens) (UniProt P35968). Briefly: Inhibition of KDR (unknown origin) at 500 nM.
Chain of Vascular endothelial growth factor receptor 2 (Homo sapiens) (P35968 whole entry): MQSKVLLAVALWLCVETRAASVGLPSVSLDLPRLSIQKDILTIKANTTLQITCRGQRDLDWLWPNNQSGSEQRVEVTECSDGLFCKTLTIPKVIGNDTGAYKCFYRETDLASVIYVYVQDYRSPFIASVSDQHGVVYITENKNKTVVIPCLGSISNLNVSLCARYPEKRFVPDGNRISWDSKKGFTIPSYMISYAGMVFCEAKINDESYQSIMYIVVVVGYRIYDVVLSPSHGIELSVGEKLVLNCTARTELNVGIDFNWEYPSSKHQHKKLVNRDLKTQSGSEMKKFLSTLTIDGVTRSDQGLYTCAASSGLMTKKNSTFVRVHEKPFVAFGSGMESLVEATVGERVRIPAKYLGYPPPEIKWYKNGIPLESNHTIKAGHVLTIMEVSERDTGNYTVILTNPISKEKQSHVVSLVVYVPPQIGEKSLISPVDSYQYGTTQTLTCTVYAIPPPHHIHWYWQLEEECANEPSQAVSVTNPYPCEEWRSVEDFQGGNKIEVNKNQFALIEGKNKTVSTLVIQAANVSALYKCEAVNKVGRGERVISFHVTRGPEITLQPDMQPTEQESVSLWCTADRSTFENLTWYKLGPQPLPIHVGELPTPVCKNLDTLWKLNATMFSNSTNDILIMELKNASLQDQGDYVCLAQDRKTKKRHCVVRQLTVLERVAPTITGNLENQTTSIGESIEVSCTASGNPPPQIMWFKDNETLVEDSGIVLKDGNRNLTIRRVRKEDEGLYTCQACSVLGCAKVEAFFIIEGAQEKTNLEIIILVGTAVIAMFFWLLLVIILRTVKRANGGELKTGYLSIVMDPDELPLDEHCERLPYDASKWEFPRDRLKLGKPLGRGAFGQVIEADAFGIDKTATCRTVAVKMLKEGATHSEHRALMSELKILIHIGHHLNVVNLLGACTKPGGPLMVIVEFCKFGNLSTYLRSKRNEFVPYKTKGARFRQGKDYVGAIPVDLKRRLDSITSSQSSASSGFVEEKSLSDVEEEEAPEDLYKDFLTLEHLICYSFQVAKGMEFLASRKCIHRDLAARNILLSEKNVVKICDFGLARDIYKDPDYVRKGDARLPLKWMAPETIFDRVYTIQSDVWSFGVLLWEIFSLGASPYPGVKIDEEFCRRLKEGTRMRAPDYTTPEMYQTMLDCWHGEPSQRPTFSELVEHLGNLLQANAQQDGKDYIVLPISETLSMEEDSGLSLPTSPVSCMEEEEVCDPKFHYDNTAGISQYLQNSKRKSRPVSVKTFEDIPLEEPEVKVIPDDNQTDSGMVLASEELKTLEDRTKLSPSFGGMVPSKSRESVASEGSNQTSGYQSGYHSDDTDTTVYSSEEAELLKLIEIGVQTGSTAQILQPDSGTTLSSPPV
For assay [13], the target named is Platelet-derived growth factor receptor beta (Homo sapiens) (UniProt P09619). The experiment in a line: Inhibition of PDGFRB (unknown origin) at 500 nM.
Assay [14] addresses Receptor tyrosine-protein kinase erbB-2 (Homo sapiens) (UniProt P04626). Briefly: Inhibition of ERBB2 (unknown origin) at 500 nM.
For assay [15], the target named is Receptor tyrosine-protein kinase erbB-4 (Homo sapiens) (UniProt Q15303). Briefly: Inhibition of ERBB4 (unknown origin) at 500 nM.
Assay [16] concerns the target Tyrosine-protein kinase Fgr (Homo sapiens) (UniProt P09769). The experiment in a line: Inhibition of FGR (unknown origin) at 500 nM.
For assay [17], the target named is Vascular endothelial growth factor receptor 3 (Homo sapiens) (UniProt P35916). The experiment in a line: Inhibition of FLT4 (unknown origin) at 500 nM.
In assay [18] the target is Tyrosine-protein kinase Fer (Homo sapiens) (UniProt P16591). The experiment in a line: Inhibition of FER (unknown origin) at 500 nM.
Chain of Tyrosine-protein kinase Fer (Homo sapiens) (P16591 whole entry, looked up): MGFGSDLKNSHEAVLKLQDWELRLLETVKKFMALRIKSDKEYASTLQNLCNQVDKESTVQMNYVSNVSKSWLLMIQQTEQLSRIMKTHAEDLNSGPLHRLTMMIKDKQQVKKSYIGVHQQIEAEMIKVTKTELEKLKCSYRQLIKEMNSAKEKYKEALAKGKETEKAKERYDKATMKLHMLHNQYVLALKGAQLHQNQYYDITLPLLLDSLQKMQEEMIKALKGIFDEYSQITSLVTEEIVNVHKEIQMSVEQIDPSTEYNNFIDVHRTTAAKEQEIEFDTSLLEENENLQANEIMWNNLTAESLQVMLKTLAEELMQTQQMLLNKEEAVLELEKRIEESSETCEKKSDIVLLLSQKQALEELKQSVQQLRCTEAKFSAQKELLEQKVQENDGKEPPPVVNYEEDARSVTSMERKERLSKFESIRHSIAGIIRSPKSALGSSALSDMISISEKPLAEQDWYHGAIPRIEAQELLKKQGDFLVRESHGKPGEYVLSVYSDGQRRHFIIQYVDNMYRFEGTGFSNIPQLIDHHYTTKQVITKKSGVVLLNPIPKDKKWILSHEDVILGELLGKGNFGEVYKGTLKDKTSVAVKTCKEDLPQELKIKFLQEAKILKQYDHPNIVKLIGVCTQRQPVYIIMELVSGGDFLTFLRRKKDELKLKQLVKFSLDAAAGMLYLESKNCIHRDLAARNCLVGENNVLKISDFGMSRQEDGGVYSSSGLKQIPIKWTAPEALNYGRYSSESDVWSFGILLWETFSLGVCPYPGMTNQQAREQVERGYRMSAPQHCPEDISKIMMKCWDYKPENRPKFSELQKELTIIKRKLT
The target of assay [19] is Serine/threonine-protein kinase PLK1 (Homo sapiens) (UniProt P53350). Briefly: Inhibition of PLK1 (unknown origin) at 500 nM.
Assay [20] has as its target Mast/stem cell growth factor receptor Kit (Homo sapiens) (UniProt P10721). The experiment in a line: Inhibition of KIT (unknown origin) at 500 nM.
In assay [21] the target is Fibroblast growth factor receptor 1 (Homo sapiens) (UniProt P11362). The experiment in a line: Inhibition of FGFR1 (unknown origin) at 500 nM.
For assay [22], the target named is Tyrosine-protein kinase Lyn (Homo sapiens) (UniProt P07948). The experiment in a line: Inhibition of LYN A (unknown origin) at 500 nM.

Broadly, the inhibition is the change of the read-out against control, counted positive when it falls.

Chain of Tyrosine-protein kinase Fgr (Homo sapiens) (P09769 2-529 limits assumed): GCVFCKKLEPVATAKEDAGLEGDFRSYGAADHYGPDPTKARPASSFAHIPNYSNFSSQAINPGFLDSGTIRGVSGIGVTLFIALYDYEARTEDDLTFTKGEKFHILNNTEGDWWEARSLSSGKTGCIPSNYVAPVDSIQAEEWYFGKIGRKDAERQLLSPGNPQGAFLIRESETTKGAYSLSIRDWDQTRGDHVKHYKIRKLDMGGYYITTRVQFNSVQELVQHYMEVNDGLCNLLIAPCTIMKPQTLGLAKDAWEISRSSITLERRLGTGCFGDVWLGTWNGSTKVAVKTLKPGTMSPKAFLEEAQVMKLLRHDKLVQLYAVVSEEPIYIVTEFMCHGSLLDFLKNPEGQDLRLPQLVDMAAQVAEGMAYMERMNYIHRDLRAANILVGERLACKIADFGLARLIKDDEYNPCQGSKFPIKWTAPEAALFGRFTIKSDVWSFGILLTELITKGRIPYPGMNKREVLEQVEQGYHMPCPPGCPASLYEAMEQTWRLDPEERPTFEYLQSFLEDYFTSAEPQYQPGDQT

On to `COc1ccc(C(=O)NCCN(C)C)cc1-c1cc2c(N[C@H](C)c3ccccc3)ncnc2s1`, for which the inhibition in assay [1] is 6%; in assay [2], -3%; in assay [3] it was 7%; in [4], 9%; in [5], 13%; in assay [6], -4%. The inhibition was 43% in assay [7]; -1% in assay [8]; -4% in assay [9]; 7% in assay [10]; -2% in [11]; 10% in [12]. Further, the inhibition in assay [13] is 0%; in assay [14] it was 63%; in assay [15], 46%; in assay [16] it was 71%; in assay [17] it was 3%; in assay [18] it was 5%. The inhibition is 2% in [19], -1% in assay [20], -4% in [21] and 57% in assay [22].

Regarding `COc1cc(C(N)=O)ccc1-c1cc2c(N[C@H](CO)c3ccccc3)ncnc2s1`, the inhibition in [1] was 6%; in [2], 0%; in assay [3] it was 5%; in assay [4] it was -5%; in assay [5], 17%; in [6], 3%. In addition, the inhibition in assay [7] was 40%; in assay [8], 12%; in assay [9] it was 6%; in assay [10], 25%; in assay [11], 5%; in assay [12] it was 7%. Further, the inhibition in assay [13] was 8%; in assay [14], 37%; in assay [15], 62%; in assay [16], 40%; in assay [17], 13%; in assay [18], -3%. Moreover, the inhibition was -8% in [19], -9% in assay [20], -10% in assay [21] and 47% in [22].

`COc1cc(CO)ccc1-c1cc2c(Nc3ccccc3)ncnc2s1`: the inhibition in assay [1] is 15%; in assay [2] it was 7%; in [3] it was 26%; in assay [4] it was 2%; in assay [5] it was 5%; in assay [6] it was -5%. The inhibition in assay [7] is 20%; in [8], -6%; in assay [9], -3%; in [10], 11%; in assay [11], -7%; in assay [12], 10%. For the same compound, the inhibition in assay [13] is -3%; in [14] it was 32%; in [15], 22%; in assay [16], 25%; in [17] it was 9%; in assay [18], 0%. Further, the inhibition is 2% in assay [19], 11% in assay [20], -4% in assay [21] and 24% in assay [22].

For the compound `COc1cc(CO)ccc1-c1cc2c(N[C@H](CO)c3ccccc3)ncnc2s1`, the inhibition in [1] came out at 3%; in [2], 1%; in assay [3], 9%; in assay [4], 1%; in [5] it was 8%; in assay [6], 13%. In addition, the inhibition stood at 37% in assay [7]; 7% in assay [8]; 5% in [9]; 20% in [10]; 4% in assay [11]; 12% in assay [12]. Moreover, the inhibition in [13] was 1%; in assay [14] it was 50%; in [15] it was 63%; in assay [16], 58%; in assay [17], 1%; in [18] it was 8%. Besides, the inhibition in assay [19] is 1%; in [20] it was 1%; in [21] it was 4%; in assay [22], 40%.
